Reference: patent US20250354930A1, “IONIC LIQUID ENCAPSULATION OF NIR DYES FOR THE IMPROVEMENT OF BLOODSTAIN DETECTION” (University of Mississippi, priority 2024, published 2025)
In brackets after ≈: the same amount, converted by molar mass. Several values for one entry are separate records, joined by “and”; a condition that tells them apart may be missing. Equal entries are not always repeated. Where two headings read alike, the source gives them in different places.

What was measured:
[1] = Conductivity measurements of 160 mM solutions; format: physicochemical
Method: Conductivity was measured using a Thermo Scientific Orion Star […] conductivity meter using a DuraProbe 4-electrode conductivity cell. […] The clean probe was introduced into each solution to record the conductivity. The conductivity was measured in triplicate for each of the solutions.

Aqueous solubility = format: physicochemical; conditions: water
[2] = biological target: T1, human serum albumin (HSA) (Homo sapiens, UniProt P02768); conditions: for free energy of binding: calculated from KA
T1 sequence (P02768 25-609): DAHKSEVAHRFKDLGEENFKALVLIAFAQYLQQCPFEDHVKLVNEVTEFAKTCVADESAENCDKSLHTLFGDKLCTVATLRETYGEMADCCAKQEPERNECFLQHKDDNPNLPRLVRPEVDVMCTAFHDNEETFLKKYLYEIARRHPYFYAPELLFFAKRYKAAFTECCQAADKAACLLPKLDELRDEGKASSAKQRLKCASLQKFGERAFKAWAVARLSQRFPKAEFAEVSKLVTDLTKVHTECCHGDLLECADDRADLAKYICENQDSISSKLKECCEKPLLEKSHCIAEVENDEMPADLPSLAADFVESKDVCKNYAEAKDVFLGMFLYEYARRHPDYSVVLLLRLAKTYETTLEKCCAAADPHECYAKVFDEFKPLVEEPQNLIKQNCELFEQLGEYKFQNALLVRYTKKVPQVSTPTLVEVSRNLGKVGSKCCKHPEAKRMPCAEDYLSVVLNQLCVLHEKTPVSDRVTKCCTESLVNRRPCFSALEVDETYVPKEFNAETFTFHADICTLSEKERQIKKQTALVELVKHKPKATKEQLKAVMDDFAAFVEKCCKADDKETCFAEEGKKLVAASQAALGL

HSA [3] = biological target: T2, HSA (Homo sapiens, UniProt P02768); test: Circular dichroism spectroscopy of HSA; conditions: 1 mg/mL HSA; 10 μM SO3SQ, with or without 160 mM CG (1:1)
T2 sequence (P02768 25-609): as above
Method: CD experiments to determine the impact the 1:1 SO3SQ and CG 1:1 may have on HSA and DNA were performed on a Jasco J-1500 CD spectrophotometer. The measurements were performed using a Jasco Spectrosil 1 mm path length cuvette. Samples containing HSA were prepared at 1 mg/mL in either water, 10 μM SO3SQ in water, and 10 μM SO3SQ in water with 1:1 160 mM CG 1:1 added. The protein scans were conducted at a 200-260 nm range. For measurements involving DNA, bacterial plasmid DNA was used, and the DNA concentration was maintained at 12 nM across all samples due to high instrument sensitivity. CG 1:1 was added at 2.5% v/v to achieve a 160 mM concentration. A solution of 9.14 μM SO3SQ in water was made and added to DNA solutions in 5 μL increments. These scans were completed over a 200-350 nm range.

[4] = in the presence of fetal bovine serum; cited from earlier work
HSA [5] = biological target: T2, HSA; test: Isothermal titration calorimetry of HSA titrated into SO3SQ; format: binding
Method: ITC measurements were carried out in triplicate on a Malvern VP-ITC. Uncertainties are provided as the standard error of the mean. The solvent was either buffer alone (25 mM sodium phosphate, pH 6.5) or buffer plus 40 mM CG 1:1. HSA was dialyzed into the appropriate buffer, and solid SO3SQ was dissolved in dialysis buffer to ensure a close buffer match. This was necessary in order to prevent strong heats of dilution that are often observed when ILs are titrated in separately. Both HSA and dye solutions were degassed for 10 min before experiments. A typical experiment contained 60 μM HSA in the syringe and 60 μM dye in the calorimetry cell. A total of 28 injections were typically used, each 10 μL in volume, and 10 min of equilibration time was allowed to occur between injections. Measurements were performed at 25° C. Because injection heats and corresponding signal-to-noise ratios were small, manual baseline fitting was performed using Origin software. Since K and N cannot be determined using this ratio of HSA and dye in the presence of CG 1:1, only the enthalpy is accessible from these measurements. The enthalpy for each ITC experiment was reported as the average enthalpy of the first 10 useable injections, which were all similar. […] For reverse titrations, performed without CG 1:1, N, K, and ΔH were fit using CHASM, and the heat of the final injection was used as the baseline. The number of binding sites per HSA molecule was reported as the inverse value of N from fitting, as is typical for reverse titrations. Finally, titrations were also performed where SO3SQ or HSA was systematically removed, one at a time, in the presence and absence of CG 1:1, to determine whether dilution heats were contributing to the measured enthalpy. In all cases, dilution heats were small, less than 10% of the observed enthalpy, and no further corrections were made.

[6] = biological target: T1, human serum albumin (HSA); conditions: dissolved in human serum albumin (HSA); cited from earlier work
HSA [7] = biological target: T2, HSA; test: Dynamic light scattering size and zeta potential of HSA systems; conditions: 0.1 mg/mL HSA in 10 μM SO3SQ, no IL
[8] = 10 μM dye; IL scanned 0-240 mM or additive at 160 mM
[9] = absence of CG 1:1, reverse titration, 25° C.

[Cl-].[Na+] [NaCl]
Conductivity, Mean ± SD [1]: 20.4 ± 0.2 μS/cm | Conductivity, Replicate 1 [1]: 20.2 μS/cm | Conductivity, Replicate 2 [1]: 20.6 μS/cm | Conductivity, Replicate 3 [1]: 20.3 μS/cm | average conductance [1]: 20.4±0.2 mS/cm | conductance relative to that of the IL [1]: 100 ×

CC1=C(c2ccc(OCCCCS(=O)(=O)O)cc2)/C(=C2/C(=O)C(c3c(-c4ccc(OCCCCS(=O)(=O)[O-])cc4)c(C)c4ccccn34)C2O)[n+]2ccccc21 (stereo not drawn) [SO3SQ]
solubility (Aqueous solubility): ~60 µM (≈ 47.9 µg/mL) | apparent association constant KA,app of HSA in SO3SQ ([2]; 10 μM SO3SQ, no IL): 3.2×10^5 and 2.0×10^5 | free energy of binding ([2]; system containing just the dye): -7.4 kcal/mol | free energy of binding ([2]; system containing the dye and IL): -8.0 kcal/mol | effect on the secondary structure of HSA (HSA [3]): increase in the alpha helical content | fluorescence quantum yield ΦF [4]: 58% | K (HSA [5]; [9]): (1.8±0.4)×10^6 | N (number of binding sites per HSA molecule) (HSA [5]; [9]): 11.5±0.4 | heat of binding, ΔH (HSA [5]; [9]): -18 ± 2 kcal/mol | ΔG° (HSA [5]; [9]): -8.50 ± 0.13 kcal/mol | enthalpy of binding between HSA and SO3SQ, ΔH (HSA [5]; buffer containing 40 mM ionic liquid, 25 mM sodium phosphate pH 6.5, 25° C.): 6.1 ± 0.2 kcal/mol | fluorescence quantum yield ΦF [6]: 61.1% | average charge (zeta potential) (HSA [7]): −20±5 mV | average size (HSA [7]): 150±20 nm

O=C(O)CO [glycolic acid]
effect on the dye's fluorescence in the presence of blood [8]: little impact
